# Starred links: 1 amine or outer side, 2 acyl side, 3 side chain; linkers in the order of their positions; H or OH if unused. Positions of bridges follow the written chain, without caps; N, C: chain ends. Residues, ends and D or L forms follow the SMILES beside them. *: point of attachment. C20 diacid = O=C(O)CCCCCCCCCCCCCCCCCCC(=O)*; γGlu = O=C(O)[C@H](CCC(=O)[*:2])N[*:1]
# Test: Assay (III) ThT fibrillation assay for physical stability
# Assay type: physicochemical
# Conditions: for ThT pH 4.0 lag time: pH 4.0, ThT fibrillation assay
# Procedure, shortened: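 Freshly prepared, pH-adjusted formulations with 1 μM ThT incubated at 37 °C under 960 rpm orbital shaking (1 mm), fluorescence (ex 444, em 485 nm) read every 20 min. […] Peptide content before and after measured by reverse-phase HPLC against pramlintide standard.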
ThT pH 4.0 lag time,ThT pH 4.0 lag time (physical stability in fibrillogenesis assay) (pH 4.0),Compound
29 h,–,"CC[C@H](C)[C@H](NC(=O)[C@@H]1CCCN1C(=O)CNC(=O)[C@H](Cc1ccccc1)NC(=O)[C@H](CC(N)=O)NC(=O)[C@H](CCC(N)=O)NC(=O)[C@H](CO)NC(=O)[C@H](CO)NC(=O)[C@H](Cc1c[nH]cn1)NC(=O)[C@H](Cc1c[nH]cn1)NC(=O)[C@H](CC(C)C)NC(=O)[C@H](Cc1ccccc1)NC(=O)[C@H](CCC(=O)O)NC(=O)[C@H](C)NC(=O)[C@H](CC(C)C)NC(=O)[C@H](CCCNC(=N)N)NC(=O)[C@H](CCC(N)=O)NC(=O)[C@@H](NC(=O)[C@H](C)NC(=O)[C@@H]1CSSC[C@H](NC(=O)CNC(=O)CC[C@H](NC(=O)CCCCCCCCCCCCCCCCCCC(=O)O)C(=O)O)C(=O)N[C@@H](CC(N)=O)C(=O)N[C@@H]([C@@H](C)O)C(=O)N[C@@H](C)C(=O)N[C@@H]([C@@H](C)O)C(=O)N1)[C@@H](C)O)C(=O)N[C@@H](CC(C)C)C(=O)N1CCC[C@H]1C(=O)N1CCC[C@H]1C(=O)N[C@H](C(=O)N[C@@H](CC(N)=O)C(=O)N[C@H](C(=O)NCC(=O)N[C@@H](CO)C(=O)N[C@@H](CCC(N)=O)C(=O)N[C@H](C(=O)N1CCC[C@H]1C(N)=O)[C@@H](C)O)C(C)C)[C@@H](C)O [Example 137, N-alpha-[(S)-4-Carboxy-4-(19-carboxynonadecanoylamino)butyryl]-[Gly1,Glu14,His17,Gln21,Gln35,Pro37]-pramlintide] ({C20 diacid-γGlu}-GCNTATCATQRLAEFLHHSSQNFGPILPPTNVGSQTP-NH2; disulfide 2-7 (inferred))"
>45 h,>45 h,"CC[C@H](C)[C@H](NC(=O)[C@@H]1CCCN1C(=O)CNC(=O)[C@H](Cc1ccccc1)NC(=O)[C@H](CC(N)=O)NC(=O)[C@H](CC(N)=O)NC(=O)[C@H](CO)NC(=O)[C@H](CO)NC(=O)[C@H](Cc1c[nH]cn1)NC(=O)[C@H](Cc1c[nH]cn1)NC(=O)[C@H](CC(C)C)NC(=O)[C@H](Cc1ccccc1)NC(=O)[C@H](CCC(=O)O)NC(=O)[C@H](C)NC(=O)[C@H](CC(C)C)NC(=O)[C@H](CCCCN)NC(=O)[C@H](CCC(N)=O)NC(=O)[C@@H](NC(=O)[C@H](C)NC(=O)[C@@H]1CSSC[C@H](NC(=O)[C@H](CCCCN)NC(=O)CC[C@H](NC(=O)CCCCCCCCCCCCCCCCCCC(=O)O)C(=O)O)C(=O)N[C@@H](CC(N)=O)C(=O)N[C@@H]([C@@H](C)O)C(=O)N[C@@H](C)C(=O)N[C@@H]([C@@H](C)O)C(=O)N1)[C@@H](C)O)C(=O)N[C@@H](CC(C)C)C(=O)N1CCC[C@H]1C(=O)N1CCC[C@H]1C(=O)N[C@H](C(=O)N[C@@H](CC(N)=O)C(=O)N[C@H](C(=O)NCC(=O)N[C@@H](CO)C(=O)N[C@@H](CC(N)=O)C(=O)N[C@H](C(=O)N1CCC[C@H]1C(N)=O)[C@@H](C)O)C(C)C)[C@@H](C)O [Example 145, N-alpha-[(S)-4-Carboxy-4-(19-carboxynonadecanoylamino)butyryl]-[Lys11,Glu14,His17,Pro37]-pramlintide] ({C20 diacid-γGlu}-KCNTATCATQKLAEFLHHSSNNFGPILPPTNVGSNTP-NH2; disulfide 2-7)"
